In PMC3805332, “Synthesis of α-Glucan in Mycobacteria Involves a Hetero-octameric Complex of Trehalose Synthase TreS and Maltokinase Pep2” (ACS Chemical Biology, 2013):

Tests used:
[1] = biological target: TreS (trehalose synthase) (Mycobacterium tuberculosis, UniProt P9WQ19)
[2] = biological target: T1, M. smegmatis TreS (Mycolicibacterium smegmatis, UniProt A0R6E0); assay: hexokinase/pyruvate kinase/lactate dehydrogenase coupled NADH fluorescence; type: biochemical; details: hydrolysis to glucose; HEPES-NaOH pH 7.5, 1 mM MgCl2, trehalose 0-25 mM, TreS 0.4 μM
T1 construct: preparation of M. smegmatis TreS not described in main text
T1 sequence (A0R6E0 1-593): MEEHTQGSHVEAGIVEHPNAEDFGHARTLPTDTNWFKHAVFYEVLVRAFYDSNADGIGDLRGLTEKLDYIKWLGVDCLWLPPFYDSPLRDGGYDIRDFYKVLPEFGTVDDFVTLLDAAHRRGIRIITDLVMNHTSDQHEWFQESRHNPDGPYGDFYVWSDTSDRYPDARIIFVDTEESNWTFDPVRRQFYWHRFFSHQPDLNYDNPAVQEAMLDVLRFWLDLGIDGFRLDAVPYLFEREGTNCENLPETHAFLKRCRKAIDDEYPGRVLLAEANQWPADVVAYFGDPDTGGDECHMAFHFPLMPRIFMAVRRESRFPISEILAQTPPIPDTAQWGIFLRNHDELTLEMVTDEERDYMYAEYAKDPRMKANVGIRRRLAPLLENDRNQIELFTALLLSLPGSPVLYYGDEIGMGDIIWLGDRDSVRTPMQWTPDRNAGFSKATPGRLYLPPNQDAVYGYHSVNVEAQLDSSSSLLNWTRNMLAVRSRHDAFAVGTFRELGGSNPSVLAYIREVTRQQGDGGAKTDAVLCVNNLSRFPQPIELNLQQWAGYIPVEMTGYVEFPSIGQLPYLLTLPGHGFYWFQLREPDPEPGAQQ

TreS (trehalose synthase), sequence (P9WQ19 whole entry): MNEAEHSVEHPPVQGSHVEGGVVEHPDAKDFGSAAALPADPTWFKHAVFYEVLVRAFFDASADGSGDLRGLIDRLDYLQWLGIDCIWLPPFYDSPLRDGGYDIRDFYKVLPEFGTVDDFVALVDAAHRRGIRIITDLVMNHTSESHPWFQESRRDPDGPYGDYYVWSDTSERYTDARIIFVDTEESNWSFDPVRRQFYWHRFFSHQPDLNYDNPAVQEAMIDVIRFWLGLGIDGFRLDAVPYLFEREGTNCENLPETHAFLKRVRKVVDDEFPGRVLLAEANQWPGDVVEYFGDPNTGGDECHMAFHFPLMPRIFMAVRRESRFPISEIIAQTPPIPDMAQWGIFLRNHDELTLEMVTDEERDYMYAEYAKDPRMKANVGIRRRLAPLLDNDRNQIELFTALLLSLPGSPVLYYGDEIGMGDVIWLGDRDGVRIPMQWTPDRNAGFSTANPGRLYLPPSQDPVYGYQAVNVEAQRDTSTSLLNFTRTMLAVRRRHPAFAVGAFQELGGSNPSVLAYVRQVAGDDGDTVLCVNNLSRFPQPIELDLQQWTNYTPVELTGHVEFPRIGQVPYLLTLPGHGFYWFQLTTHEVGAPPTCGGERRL

Compound | end-point thin layer chromatography [1] | hexokinase/pyruvate kinase/lactate dehydrogenase coupled NADH fluorescence [2]
OC[C@H]1O[C@H](O[C@H]2[C@H](O)[C@@H](O)C(O)O[C@@H]2CO)[C@H](O)[C@@H](O)[C@@H]1O (stereo partly drawn) [maltose] | Incubation of TreS with trehalose or maltose interconverted the substrates | 
OC[C@H]1O[C@H](O[C@H]2O[C@H](CO)[C@@H](O)[C@H](O)[C@H]2O)[C@H](O)[C@@H](O)[C@@H]1O [trehalose] | Incubation of TreS with trehalose or maltose interconverted the substrates | we monitored M. smegmatis TreS-catalyzed conversion of trehalose to glucose in an enzyme-coupled continuous assay
